Patent US20070208087A1, “Compounds, compositions and methods for the treatment of inflammatory diseases” (priority 2001, published 2007)
Where “and” joins values, the source holds several entries; their conditions need not be identical. Equal entries are not always repeated.

Columns and labels:
Format in all cases: cell-based
[1] = test system: EOC 13.31 microglial cells; assay: NO release inhibition screen in LPS/IFNγ stimulated microglia, Griess reaction at 48 hours (Example 7)
How it was run: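 EOC 13.31 microglia, confluent at 24 h, stimulated with 10 μg/ml LPS plus 10 ng/ml IFNγ in presence of 50 uM test compound. Nitric oxide release quantified by Griess reaction at 48 hours.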

[2] = test system: EOC 13.31 microglia cells; assay: Inhibition of NO release from microglia following 24 hours pretreatment (Example 10); settings: for inhibition at 50 µM: Microglia
How it was run: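 Confluent EOC 13.31 cells pretreated 24 hours with 50 μM compound (from 10 mM DMSO stock), then stimulated with 10 μg/ml LPS plus 10 ng/ml IFNγ without media change. After a further 48 hours, NO release was measured by Griess Reaction.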

Microglial cells = assay: Dose response inhibition of NO release from microglia, 0.75-200 μM (Example 8); settings: for Avg % Inhibition / μM NO release Avg / % inhibition / OD values (printed under head μM NO release) / μM NO release: 48 hours; for % inhibition / OD values (printed under head μM NO release) / μM NO release: single replicates
Procedure: This experiment was designed to determine dose response inhibition of NO release from microglia by bis- and tris-dihydroxyaryl compounds when stimulated with LPS/IFNγ. […] This experiment is designed to determine a dose response for various bis- and tris-dihydroxyaryl compounds. Microglial cells were plated into 96 well plates at 1×10^5 cells/ml. […] The doses tested were: 0.75 μM, 1.56 μM, 3.125 μM, 6.25 μM, 12.5 μM, 25 μM, 50 μM, 100 μM and 200 μM. Nitric oxide release was measured after 48 hours using the Griess reaction.

[3] = test system: EOC 13.31 microglia cells; assay: NO release inhibition in LPS/IFNγ stimulated microglia, concurrent treatment, Griess reaction at 24 hours (Example 6); settings: for OD Values: Griess; for OD Values / NO release: single replicates; for inhibition at 50 µM: Microglia
How it was run: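 Confluent EOC 13.31 microglia were given 50 μM compound together with 1 pg/ml LPS plus 1 ng/ml IFNγ, or without stimulation. NO release was quantified spectrophotometrically by Griess reaction 24 hours later.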

microglia = assay: Ranking of NO release inhibition (Example 12); settings: ranking table
Text: The bis- and tris-dihydroxyaryl compounds were ranked in order of effectiveness for the inhibition of NO release as set out in Table 8.

[4] = test system: TNF-α release from microglia; assay: TNF-α release from LPS/IFNγ stimulated microglia, TNF-α ELISA (Example 11); settings: 50 uM compound, TNF-α release, 10 ug LPS and 10 ng IFNγ, 24 hours
How it was run: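 Microglia pretreated 1 h with 50 μM bis-/tris-dihydroxyaryl compound, then stimulated with 10 μg/ml LPS + 10 ng/ml IFNγ for 24 h. Medium sampled, stored at −80°, diluted 1:50 and TNF-α measured by ELISA.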

[5] = 50 uM + 10 μg/ml LPS/10 ng/ml IFNγ, 48 hours
[6] = 50 uM + 10 μg/ml LPS/10 ng/ml IFNγ, 48 hours, single replicates
[7] = 50 uM pretreatment 24 hours, then LPS/IFNγ 48 hours, single replicates
[8] = Compound + LPS/IFNγ, 50 μM, 24 hours
[9] = Compound Only (without LPS/IFNγ), 50 μM, 24 hours

Structure (SMILES): Oc1ccc(Cc2ccc(O)c(O)c2)cc1O [Compound 3, 3,4,3′,4′-tetrahydroxydiphenylmethane]
- Avg. % Inhibition [1, 5]: 96.40%
- μM NO release Avg [1, 5]: 1.000 µM
- OD values (printed under head μM NO release) [1, 6]: 0.064 and 0.055 and 0.062
- μM NO release [1, 6]: 1.393 µM and 0.429 µM and 1.179 µM
- % inhibition ([1]; 50 uM + 10 μg/ml LPS/10 ng/ml IFNγ, 48 hours, single replicates, 50 µM): 98.46% and 95.75% and 94.98%
- inhibition of NO release, in words ([1]; 50 uM, LPS/IFNγ stimulated microglia): effective inhibitors of NO release
- Avg % Inhibition ([2]; 50 uM pretreatment 24 hours, then LPS/IFNγ 48 hours): 79.87%
- % inhibition [2, 7]: 86.74% and 69.63% and 83.24%
- OD values (printed under head μM NO release) [2, 7]: 0.206 and 0.163 and 0.153
- μM NO release [2, 7]: 6.000 µM and 3.313 µM and 2.621 µM
- Avg % Inhibition (Microglial cells; dose 0.75 μM): −8.947%
- μM NO release Avg (Microglial cells; dose 0.75 μM): 21.563 µM
- % inhibition (Microglial cells; dose 0.75 μM): −3.42% and −6.58% and −16.84%
- OD values (printed under head μM NO release) (Microglial cells; dose 0.75 μM): 0.2 and 0.183 and 0.187
- μM NO release (Microglial cells; dose 0.75 μM): 23.125 µM and 20.469 µM and 21.094 µM
- μM NO release Avg (Microglial cells; dose 1.56 μM): 19.792 µM
- % inhibition (Microglial cells; dose 1.56 μM): 3.68% (2×) and −7.37%
- OD values (printed under head μM NO release) (Microglial cells; dose 1.56 μM): 0.188 and 0.174 (2×)
- μM NO release (Microglial cells; dose 1.56 μM): 21.250 μM and 19.063 μM (2×)
- Avg % Inhibition (Microglial cells; dose 3.125 μM): 0.789%
- μM NO release Avg (Microglial cells; dose 3.125 μM): 19.635 µM
- % inhibition (Microglial cells; dose 3.125 μM): 2.89% and 5.26% and −5.79%
- OD values (printed under head μM NO release) (Microglial cells; dose 3.125 μM): 0.186 and 0.175 and 0.172
- μM NO release (Microglial cells; dose 3.125 μM): 20.938 µM and 19.219 µM and 18.750 µM
- Avg % Inhibition (Microglial cells; dose 6.25 μM): 7.368%
- μM NO release Avg (Microglial cells; dose 6.25 μM): 18.333 µM
- % inhibition (Microglial cells; dose 6.25 μM): 10.79% and 10.00% and 1.32%
- OD values (printed under head μM NO release) (Microglial cells; dose 6.25 μM): 0.177 and 0.165 and 0.166
- μM NO release (Microglial cells; dose 6.25 μM): 19.531 µM and 17.656 µM and 17.813 µM
- Avg % Inhibition (Microglial cells; dose 12.5 μM): 6.579%
- μM NO release Avg (Microglial cells; dose 12.5 μM): 18.490 µM
- % inhibition (Microglial cells; dose 12.5 μM): 10.00% and 2.89% and 6.84%
- OD values (printed under head μM NO release) (Microglial cells; dose 12.5 μM): 0.17 and 0.166 and 0.175
- μM NO release (Microglial cells; dose 12.5 μM): 18.438 µM and 17.813 µM and 19.219 µM
- Avg % Inhibition (Microglial cells; dose 25 μM): 14.737%
- μM NO release Avg (Microglial cells; dose 25 μM): 16.875 µM
- % inhibition (Microglial cells; dose 25 μM): 22.63% and 10.00% and 11.58%
- OD values (printed under head μM NO release) (Microglial cells; dose 25 μM): 0.164 and 0.15 and 0.166
- μM NO release (Microglial cells; dose 25 μM): 17.500 µM and 15.313 µM and 17.813 µM
- Avg % Inhibition (Microglial cells; dose 50 μM): 47.368%
- μM NO release Avg (Microglial cells; dose 50 μM): 10.417 µM
- % inhibition (Microglial cells; dose 50 μM): 48.68% and 46.32% and 47.11%
- OD values (printed under head μM NO release) (Microglial cells; dose 50 μM): 0.119 and 0.117 and 0.12
- μM NO release (Microglial cells; dose 50 μM): 10.469 µM and 10.156 µM and 10.625 µM
- Avg % Inhibition (Microglial cells; dose 100 μM): 62.368%
- μM NO release Avg (Microglial cells; dose 100 μM): 7.448 µM
- % inhibition (Microglial cells; dose 100 μM): 64.47% and 60.53% and 62.11%
- OD values (printed under head μM NO release) (Microglial cells; dose 100 μM): 0.1 and 0.097 and 0.102
- μM NO release (Microglial cells; dose 100 μM): 7.500 µM and 7.031 µM and 7.813 µM
- Avg % Inhibition (Microglial cells; dose 200 μM): 67% and 67.105%
- μM NO release Avg (Microglial cells; dose 200 μM): 6.510 µM
- % inhibition (Microglial cells; dose 200 μM): 68.42% and 66.84% and 66.05%
- OD values (printed under head μM NO release) (Microglial cells; dose 200 μM): 0.095 and 0.092 and 0.094
- μM NO release (Microglial cells; dose 200 μM): 6.719 µM and 6.250 µM and 6.563 µM
- inhibition of NO release, in words (Microglial cells; dose response 0.75-200 μM): effective inhibitors of NO release
- inhibition of NO release, in words ([3]; 50 μM, LPS/IFNγ stimulated microglial cells): very effective inhibitors of NO release
- % inhibition of NO release [3, 8]: 48.8%
- NO release, Avg [3, 8]: 9.5299 µM
- OD Values [3, 8]: 0.094 and 0.137 and 0.145
- NO release [3, 8]: 6.0450 µM and 10.8259 µM and 11.7188 µM
- NO release, Avg [3, 9]: 1.0417 µM
- OD Values [3, 9]: 0.053 (2×) and 0.054
- NO release [3, 9]: 1.0000 uM (2×) and 1.1250 uM
- % Inhibition (summary of inhibition of NO release) ([3]; Table 2 summary, 50 μM, LPS/IFNγ, 24 hours): 48.8%
- % Inhibition at 50 μM (NO release) (microglia): 30%

Structure (SMILES): O=C(NCc1ccc(O)c(O)c1)c1ccc(O)c(O)c1 [Compound 52, 3,4-dihydroxybenzoic acid 3,4-dihydroxybenzylamide]
- % inhibition ([4]; individual replicates, 50 µM): −12.27% and −26.58% and −30.69%
- inhibition at 50 µM ([4]; Microglia, 24 h, read-out: Avg % Inhibition): -23.2%
- % inhibition [2, 7]: 80.39% and 81.34%
- inhibition at 50 µM ([2]; 50 uM pretreatment 24 hours, then LPS/IFNγ 48 hours, read-out: Avg % Inhibition): 80%
- inhibition at 50 µM ([2]; 50 uM pretreatment 24 hours, then LPS/IFNγ 48 hours, single replicates, read-out: % inhibition): 78.2%
- inhibition at 50 µM ([2]; 50 μM pretreatment, read-out: inhibition of NO release following pretreatment): > 75%
- NO release, Avg [3, 8]: 16.2840 µM
- NO release, Avg [3, 9]: -0.0417 µM
- inhibition at 50 µM ([3]; Compound + LPS/IFNγ, 24 hours, read-out: % inhibition of NO release): 12.6%
- inhibition at 50 µM ([3]; Table 2 summary, LPS/IFNγ, 24 hours, read-out: % Inhibition (summary of inhibition of NO release)): 12.6%
- inhibition at 50 µM (microglia; Microglia): 13%
